Values quoted from earlier work, collected in patent US20030092754A1, “External preparation for skin diseases containing nitroimidazole” (priority 1999, published 2003).

What was measured:
delayed immune reaction = settings: intraperitoneal administration
granuloma formation = settings: mice, oral administration
anti-TBA antibody titer = settings: rabbits, intraperitoneal administration
[1] = system: swelling of the ears induced by dinitrofluorobenzene; settings: sensitized mice, intraperitoneal administration

SMILES	anti-Trichomonas activity (Trichomonas)	action on leukocyte migration (leukocyte migration)	delayed immune reaction to intravenous injection of ovine erythrocytes (delayed immune reaction)	formation of granuloma by eggs of Schistosoma mansoni (granuloma formation)	increases in anti-TBA antibody titer to TBA vaccine (anti-TBA antibody titer)	swelling of the ears induced by dinitrofluorobenzene [1]	antimicrobial activity against Entamoeba histolytica (Entamoeba histolytica)
CCS(=O)(=O)CCn1c([N+](=O)[O-])cnc1C [tinidazole, 1-(2-ethylsulfonylethyl)-2-methyl-5-nitroimidazole]	primarily has anti-Trichomonas activity	clearly exhibits inhibitory action of leukocyte migration	tends to inhibit delayed immune reaction	–	–	–	–
Cc1ncc([N+](=O)[O-])n1CCO [metronidazole, 2-(2-methyl-5-nitroimidazol-1-yl)ethanol]	potent anti-Trichomonas activity	inhibitory action on leukocyte migration	inhibits a delayed immune reaction	inhibited	significantly inhibits	inhibit swelling of the ears	strong antimicrobial activity
